In brackets after ≈: the same amount, converted by molar mass.

Format in all cases: functional
In experiment [1] the test system is Staphylococcus epidermidis. The experiment in a line: Antimicrobial activity against Staphylococcus epidermidis ATCC 155 at 100 ug/ml after 24 hr by paper disk diffusion method. The note with it: ATCC 155, 24 h, read-out: IZ.
Experiment [2] relates to Mycobacterium tuberculosis. The experiment can be described thus: Antimicrobial activity against Mycobacterium tuberculosis H37Rv ATCC 27294 after 7 days by MABA. The note with it: for MIC90: Mycobacterium tuberculosis, H37Rv ATCC 27294, 168 h.
Experiment [3] concerns Micrococcus luteus. The experiment can be described thus: Antimicrobial activity against Micrococcus luteus ATCC 4698 at 100 ug/ml after 24 hr by paper disk diffusion method. The note with it: ATCC 4698, 24 h, read-out: IZ.
Experiment [4] has as its system Staphylococcus aureus. The experiment in a line: Antimicrobial activity against Staphylococcus aureus ATCC 9144 at 100 ug/ml after 24 hr by paper disk diffusion method. The settings on record: ATCC 9144, 24 h, read-out: IZ.
In experiment [5] the test system is Bacillus cereus. The experiment can be described thus: Antimicrobial activity against Bacillus cereus ATCC 11778 after 24 hr by agar streak dilution method. The settings on record: ATCC 11778, 24 h.
Experiment [6] deals with Staphylococcus aureus. The experiment can be described thus: Antimicrobial activity against Staphylococcus aureus ATCC 9144 after 24 hr by agar streak dilution method. The note with it: ATCC 9144, 24 h.
Experiment [7] relates to Bacillus cereus. The experiment in a line: Antimicrobial activity against Bacillus cereus ATCC 11778 at 100 ug/ml after 24 hr by paper disk diffusion method. The note with it: ATCC 11778, 24 h, read-out: IZ.
Experiment [8] has as its system Micrococcus luteus. The experiment in a line: Antimicrobial activity against Micrococcus luteus ATCC 4698 after 24 hr by agar streak dilution method. The settings on record: ATCC 4698, 24 h.
For experiment [9], the system named is Staphylococcus epidermidis. The experiment can be described thus: Antimicrobial activity against Staphylococcus epidermidis ATCC 155 after 24 hr by agar streak dilution method. The note with it: ATCC 155, 24 h.

As for `O=C1/C(=N\c2ccc(/N=C/c3ccc([N+](=O)[O-])cc3)cc2)c2ccccc2N1Cc1ccccc1`, the zone of inhibition at 100 µg/mL came to 19 mm in [1], 13 mm with Micrococcus luteus [3], 15 mm with Staphylococcus aureus [4] and 16 mm with Bacillus cereus [7]. Moreover, the “inhibition (INH)” value in experiment [2] is recorded as 80%. Also, the MIC in the experiment with Bacillus cereus [5] amounted to 19.2 µg/mL (≈ 41.7 µM); against Staphylococcus aureus [6], 25.2 µg/mL (≈ 54.7 µM); in the experiment with Micrococcus luteus [8], 27.8 µg/mL (≈ 60.4 µM); in [9] it was 20.4 µg/mL (≈ 44.3 µM).
Regarding `O=C1/C(=N\c2ccc(/N=C/c3ccc(Br)cc3)cc2)c2ccccc2N1Cc1ccccc1`, the zone of inhibition at 100 µg/mL in experiment [1] was 18 mm; in the experiment with Micrococcus luteus [3], 20 mm; in the experiment on Staphylococcus aureus [4] it was 19 mm; in the experiment on Bacillus cereus [7], 17 mm. Further, the “inhibition (INH)” value in experiment [2] is 96%. In experiment [2], this molecule came in with an MIC90 of 4.26 µM (≈ 2.11 µg/mL). Moreover, the MIC is 15.3 µg/mL (≈ 30.9 µM) against Bacillus cereus [5], 19.3 µg/mL (≈ 39 µM) in the experiment on Staphylococcus aureus [6], 16.3 µg/mL (≈ 33 µM) against Micrococcus luteus [8] and 21.2 µg/mL (≈ 42.9 µM) in experiment [9].
Turning to `O=C1/C(=N\c2ccc(/N=C/c3ccc(Cl)cc3)cc2)c2ccccc2N1Cc1ccccc1`, the zone of inhibition at 100 µg/mL in experiment [1] came out at 25 mm; in the experiment on Micrococcus luteus [3], 23 mm; with Staphylococcus aureus [4] it was 21 mm; with Bacillus cereus [7], 19 mm. The “inhibition (INH)” value in [2] worked out at 90%. Besides, the minimum inhibitory concentration (MIC) stood at 12.1 µg/mL (≈ 26.9 µM) in the experiment on Bacillus cereus [5], 10.4 µg/mL (≈ 23.1 µM) in the experiment with Staphylococcus aureus [6], 11.2 µg/mL (≈ 24.9 µM) in the experiment with Micrococcus luteus [8] and 9.8 µg/mL (≈ 21.8 µM) in experiment [9].
Regarding `O=C1/C(=N\c2ccc(/N=C/c3ccccc3O)cc2)c2ccccc2N1Cc1ccccc1`, the zone of inhibition at 100 µg/mL stood at 20 mm in experiment [1], 17 mm with Micrococcus luteus [3], 20 mm in the experiment on Staphylococcus aureus [4] and 18 mm with Bacillus cereus [7]. For the same molecule, in experiment [2], the “inhibition (INH)” value is 90%. The MIC in the experiment on Bacillus cereus [5] was determined as 16.7 µg/mL (≈ 38.7 µM); against Staphylococcus aureus [6] it was 13.2 µg/mL (≈ 30.6 µM); in the experiment with Micrococcus luteus [8] it was 20.6 µg/mL (≈ 47.7 µM); in [9], 17.6 µg/mL (≈ 40.8 µM).
As to `COc1ccc(/C=N/c2ccc(/N=C3\C(=O)N(Cc4ccccc4)c4ccccc43)cc2)cc1`, the zone of inhibition at 100 µg/mL was determined as 23 mm in [1], 20 mm with Micrococcus luteus [3], 19 mm with Staphylococcus aureus [4] and 17 mm in the experiment with Bacillus cereus [7]. The “inhibition (INH)” value in experiment [2] was determined as 80%. The minimal inhibitory concentration (MIC) in the experiment with Bacillus cereus [5] is 17.1 µg/mL (≈ 38.4 µM); against Staphylococcus aureus [6] it was 13.6 µg/mL (≈ 30.5 µM); against Micrococcus luteus [8], 12.4 µg/mL (≈ 27.8 µM); in experiment [9] it was 14.8 µg/mL (≈ 33.2 µM).
Turning to `COc1ccc(/C=N/c2ccc(/N=C3\C(=O)N(Cc4ccccc4)c4ccccc43)cc2)cc1OC`, the zone of inhibition at 100 µg/mL in experiment [1] is 18 mm; with Micrococcus luteus [3] it was 17 mm; with Staphylococcus aureus [4] it was 22 mm; with Bacillus cereus [7], 16 mm. Further, the “inhibition (INH)” value in [2] amounted to 73%. Besides, the MIC in the experiment on Bacillus cereus [5] was 21.2 µg/mL (≈ 44.6 µM); in the experiment on Staphylococcus aureus [6] it was 11.8 µg/mL (≈ 24.8 µM); in the experiment with Micrococcus luteus [8], 19.6 µg/mL (≈ 41.2 µM); in [9], 20.2 µg/mL (≈ 42.5 µM).
Consider `COc1cc(/C=N/c2ccc(/N=C3\C(=O)N(Cc4ccccc4)c4ccccc43)cc2)ccc1O`, for which the zone of inhibition at 100 µg/mL in [1] is 22 mm; with Micrococcus luteus [3] it was 19 mm; in the experiment with Staphylococcus aureus [4] it was 19 mm; with Bacillus cereus [7] it was 17 mm. Besides, in experiment [2], the “inhibition (INH)” value was determined as 80%. For the same molecule, the MIC in the experiment with Bacillus cereus [5] turned out to be 18.6 µg/mL (≈ 40.3 µM); against Staphylococcus aureus [6], 18.2 µg/mL (≈ 39.4 µM); in the experiment on Micrococcus luteus [8], 18.7 µg/mL (≈ 40.5 µM); in [9], 13.8 µg/mL (≈ 29.9 µM).
On to `CN(C)c1ccc(/C=N/c2ccc(/N=C3\C(=O)N(Cc4ccccc4)c4ccccc43)cc2)cc1`, for which the zone of inhibition at 100 µg/mL in [1] worked out at 14 mm; in the experiment with Micrococcus luteus [3] it was 18 mm; in the experiment with Staphylococcus aureus [4], 17 mm; in the experiment with Bacillus cereus [7], 15 mm. In addition, the “inhibition (INH)” value in experiment [2] was determined as 79%. The MIC was 20.7 µg/mL (≈ 45.1 µM) against Bacillus cereus [5], 22.8 µg/mL (≈ 49.7 µM) in the experiment on Staphylococcus aureus [6], 19.7 µg/mL (≈ 43 µM) against Micrococcus luteus [8] and 24 µg/mL (≈ 52.3 µM) in [9].
Take `O=C(O)c1cn(C2CC2)c2cc(N3CCNCC3)c(F)cc2c1=O` [CIPROFLOXACIN]: the zone of inhibition at 100 µg/mL was 29 mm in experiment [1], 30 mm with Micrococcus luteus [3], 25 mm in the experiment with Staphylococcus aureus [4] and 25 mm with Bacillus cereus [7]. Besides, the MIC came to 0.3 µg/mL (≈ 0.905 µM) with Bacillus cereus [5], 0.2 µg/mL (≈ 0.604 µM) in the experiment on Staphylococcus aureus [6], 0.1 µg/mL (≈ 0.302 µM) against Micrococcus luteus [8] and 0.35 µg/mL (≈ 1.06 µM) in experiment [9].
For `NNC(=O)c1ccncc1` [ISONIAZID], in [2], the “inhibition (INH)” value is listed as 100% and the MIC90 worked out at 0.74 µM (≈ 0.101 µg/mL).
Regarding `COc1c(N2C[C@@H]3CCCN[C@@H]3C2)c(F)cc2c(=O)c(C(=O)O)cn(C3CC3)c12` [MOXIFLOXACIN], in [2], the “inhibition (INH)” value is on record as 100% and the MIC90 is 0.25 µM (≈ 0.1 µg/mL).
For the molecule `O=[N+]([O-])c1cn2c(n1)OC[C@@H](OCc1ccc(OC(F)(F)F)cc1)C2` [PRETOMANID], in [2], the “inhibition (INH)” value came out at 100% and the MIC90 stood at 0.25 µM (≈ 0.0898 µg/mL).
In the case of `CO[C@H]1/C=C/O[C@@]2(C)Oc3c(C)c(O)c4c(O)c(c(/C=N/N5CCN(C)CC5)c(O)c4c3C2=O)NC(=O)/C(C)=C\C=C\[C@H](C)[C@H](O)[C@@H](C)[C@@H](O)[C@@H](C)[C@H](OC(C)=O)[C@@H]1C` [RIFAMPIN], in experiment [2], the “inhibition (INH)” value is 100% and the MIC90 turned out to be 0.06 µM (≈ 0.0494 µg/mL).

Source of the values: ChEMBL document CHEMBL3045173, “Synthesis, antibacterial, and antitubercular studies of some novel isatin derivatives” (2012).
